Values quoted from earlier work, collected in patent US20230406931A1, “Adjuvant Durvalumab in Combination with Chemotherapy for Treatment of Cancer” (ASTRAZENECA AB, priority 2020, published 2023).

Legend:
PD-L1 = PD-L1 (Homo sapiens, UniProt Q9NZQ7); details: in vitro; cited from earlier work
[1] = durvalumab versus placebo following definitive concurrent chemoradiation, PACIFIC study; cited from earlier work
xenograft tumor = details: xenograft model, via a T-cell dependent mechanism; cited from earlier work

Sequence of PD-L1 (Q9NZQ7 19-290): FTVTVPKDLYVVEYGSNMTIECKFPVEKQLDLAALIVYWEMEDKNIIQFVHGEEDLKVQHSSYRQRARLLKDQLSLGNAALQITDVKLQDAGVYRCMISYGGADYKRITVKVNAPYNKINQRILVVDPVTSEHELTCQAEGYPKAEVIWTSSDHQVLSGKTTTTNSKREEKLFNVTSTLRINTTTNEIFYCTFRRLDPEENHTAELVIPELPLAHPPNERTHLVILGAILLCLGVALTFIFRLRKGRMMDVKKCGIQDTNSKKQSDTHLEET

Substance: durvalumab: antibody that selectively binds PD-L1 and blocks the binding of PD-L1 to the PD-1 and CD80 receptors
- relief of PD-L1-mediated suppression of human T-cell activation (PD-L1): relieve PD-L1-mediated suppression of human T-cell activation
- overall survival (OS) [1]: improved
- progression-free survival (PFS) [1]: improved
- tumor growth (xenograft tumor): inhibits tumor growth
